From a melting point compilation (Tetko et al.; mined from patent text by program, amines drawn as free bases though some values may be those of a salt) come the findings set out here.

One may read the melting point as the temperature of the solid-liquid transition.

With `Cn1ncc(N)c1C(N)=O`, the melting point lay within 158 to 160 °C.
Take `CCC(=O)NCCCC(=O)O`: the melting point was 85 to 90 °C.
For the molecule `CS(=O)(=O)NCCS(=O)(=O)N1CCN(S(=O)(=O)c2ccc(-c3ccc(C(F)(F)F)cc3)s2)[C@@H](C(=O)NO)C1`, the melting point was 105 to 108 °C.
`Cc1nc[nH]c1CSCCNC(=N)NCC(C)SCc1[nH]cnc1C` (stereo not drawn) returned a melting point of 173 to 175 °C.
Molecule `O=c1c2c(N3CCNCC3)cc(Cl)cc2n(Cc2ccccc2)c(=O)n1Cc1ccccc1O` registered a melting point of 113 to 130 °C.
In the case of `CC(C)(C)c1ccccc1N1CCN(C(=O)CC#N)CC1` it was 163 to 164 °C; in that of `NS(=O)(=O)c1cccc(NC(=O)c2cnn3c(C(F)(F)F)cc(-c4ccc(C(F)(F)F)cc4)nc23)c1`, 155 °C.
The molecule `O=[N+]([O-])c1ccc(Nc2ccccc2)s1` came in with a melting point of 186 °C.
As for `CCc1nn(CCO)c(CC)c1Cc1c(F)cccc1F`, the melting point lay in the range of 70 to 71 °C.
For the molecule `COc1ccc(C2Cc3cc(C(F)(F)F)ccc3NC(=O)C2CSC)cc1` (stereo not drawn), the melting point lay within 224 to 226 °C.
In the case of `Cc1cccc(Br)c1-c1c(C)cccc1Br` it was 90 to 92.3 °C; in that of `CN(C)CCOc1ccc(CNC(=O)c2ccc(S(N)(=O)=O)cc2)cc1`, 174 °C.
As for `C=CCN1CCCN(c2ccc(Cl)cc2C)C1=S`, the melting point was 101 to 103 °C.
On to `Cc1ccc2cc(NC(=O)c3cccc(SCc4cc(Nc5ccccc5)n[nH]4)c3)ccc2n1`, for which the melting point lay in the range of 172 to 174 °C.
`CC1=NC(NC(=O)Nc2cccc(Cl)c2)C(=O)N(CC(=O)N2CC3CCC(CC3)C2)c2c(C)cccc21` (stereo not drawn) yielded a melting point of 181 to 185 °C.
Take `CCOC(=O)c1cc(Cl)cc2c(=O)c(C)c(-c3ccccc3)oc12`: the melting point lay within 127 to 128 °C.
`O=C(O)c1ccc(-c2cnc3c(c2)N(Cc2c(F)ccc(F)c2Cl)C(=O)CN3)cc1`: the melting point was greater than 300 °C.
Next, `CCOC(=O)c1cn(-c2nnc(C)s2)c2nc(Cl)c(F)cc2c1=O`: 159 to 162 °C; `Cc1nn(C)c2ncc3c(c12)CC(C)CC3` (stereo not drawn): 121 to 123 °C.
On to `COC(=O)Cc1cc(OC)ccc1O`, for which the melting point was in the range of 69 to 70 °C.
For the molecule `Cn1c2cc(Cl)ccc2c2c(Cl)nc(-c3ccncc3)nc21`, the melting point lay in the range of 272 to 274 °C.
`CCOC(=O)c1cc2c(OCc3ccccc3)cccc2n1C` came in with a melting point of 89 to 90.5 °C.
As for `CCOC(=O)C1=C(COCc2nc(C)cs2)NC(C)=C(C(=O)OC)C1c1ccccc1Cl` (stereo not drawn), the melting point was 107 to 110 °C.
On to `CC(C)[Si](C#Cc1ccc2cc3c(cc2c1)Cc1cc2cc(C#C[Si](C(C)C)(C(C)C)C(C)C)ccc2cc1C3)(C(C)C)C(C)C`, for which the melting point fell in the range of 73 to 75 °C.
`COC(=O)Cc1cccc(Cc2ccccc2C(=O)O)c1` gave a melting point of 67 to 70 °C.
In the case of `CN(c1ncccc1C=O)C1CCN(C(=O)OC(C)(C)C)CC1` it was 90 to 91 °C.
In the case of `CN1CCN(CCc2ccc(Nc3ncc4c(n3)-c3ccccc3C(c3ccccc3C(F)(F)F)C4)cc2)CC1` (stereo not drawn), the melting point lay within 157 to 158 °C.
Take `CN(C)c1ccc(C=Cc2ccc(S(=O)(=O)CCCCCCCCCCCO)cc2)cc1`: the melting point was in the range of 153 to 155 °C.
On to `N#Cc1ccc(N2CCC(=O)CC2)c2ccccc12`, for which the melting point was 143 to 144 °C.
In the case of `O=C(Nc1cc([N+](=O)[O-])c[nH]c1=O)c1ccccc1` it was 267 to 268 °C; in that of `O=C(NC(CO)Cc1ccc(O)cc1)OCC1CCCCC1` (stereo not drawn), 121 to 126 °C.
The molecule `O=C1Nc2cnncc2C(=O)C1c1c(F)cc(F)cc1F` (stereo not drawn) displayed a melting point greater than 300 °C.
As for `CCCOc1cc2c(cc1OC)C(c1ccc(OC)c(OC)c1)=NN=C(C)C2CC` (stereo not drawn), the melting point fell in the range of 110 to 112 °C.
In turn, `O=C(NCCOc1ccccn1)C1Cc2ccccc2N1S(=O)(=O)c1ccc(-c2cccc(C(F)(F)F)c2)cc1` (stereo not drawn) registered a melting point of 85 °C.
In the case of `O=C1c2ccccc2-n2cnc(C=NO)c2[C@@H]2CCCN12` it was 285 °C; in that of `CSc1cnc2cc(Cl)sc2c1O`, 235 to 237 °C.
Turning to `COc1ccc(CS[C@@H]2C[C@@H](COc3ccccc3)N(S(C)(=O)=O)C2)cc1`, the melting point lay in the range of 92 to 94 °C.
`COC(CNC(=O)CCN1C(=O)NC(C)(C)C1=O)OC`: the melting point came out at 123 °C.
Next, `CCOC(=O)Cn1nc(-c2cc(C(C)(C)C)c(O)c(C(C)(C)C)c2)c2cccnc21`: 117 to 120 °C.
In the case of `CCOC(=O)c1nn(-c2ccc(Cl)cc2)c2c1CCCC2` it was 139 to 140 °C; in that of `O=C(Nc1ccc(C(=O)N2Cc3ccccc3Cc3cc(Cl)ccc32)cc1)c1ccc(Cl)cc1Cl`, 199 to 201 °C.
Regarding `CCOC(=O)CC[C@H](NC(=O)c1csc(CCCc2coc3nc(N)nc(N)c23)c1)C(=O)OCC`, the melting point lay within 79 to 80 °C.
On to `NC(=O)NC1CCN(Cc2ccc3ccccc3c2)CC1`, for which the melting point was 183 to 185 °C.
For `COC(=O)Cn1c(C(=O)NC(N)=S)cc2cc(OC)ccc21`, the melting point lay within 202 to 206 °C.
In the case of `COc1ccc(CC(O)C(=O)c2ccccc2)cc1` (stereo not drawn) it was 100 °C; in that of `COC(=O)Nc1cc(N2CC=CCC2)nc2nc(=O)on12`, 213 to 214 °C.
In the case of `COc1ccc(Cn2nc(-c3ccc(S(C)=O)cc3)c(-c3ccc(F)cc3)cc2=O)cc1` (stereo not drawn) it was 81.3 to 81.5 °C; in that of `CNC(=O)NC(=S)N1N=C(c2ccc([N+](=O)[O-])cc2)c2cc3c(cc2CC1C)OCO3` (stereo not drawn), 164 °C.
Regarding `CCCCc1nc2c(N)nc3cccnc3c2n1CCNC(=O)OC(C)(C)C`, the melting point is 118 to 120 °C.
Regarding `COC(=O)c1cc(OC)c(Br)cc1Cl`, the melting point was 78 to 79 °C.
On to `COC(=O)c1nc(-c2ccc(Cl)c(F)c2F)nc(N)c1/C=C/[Si](C)(C)C`, for which the melting point fell in the range of 139 to 141 °C.
Next, `O=S(=O)(Cl)c1cccc(-c2cccc(-c3nc(-c4ccc(C(F)(F)F)cc4)cc(C(F)(F)F)n3)c2)c1`: 176 °C; `COc1cc(C)c(C(O)c2c(Cl)c(Cl)nc(Cl)c2C(F)(F)F)c(OC)c1OC` (stereo not drawn): 131 to 135 °C; `CCOC(=O)Cc1ccc2c(c1)CC(CC(=O)O)C2` (stereo not drawn): 56 to 57 °C.
The molecule `CCc1cc(C)c2c(-c3cccc(Br)c3)cc(=O)n(CC)c2n1` returned a melting point of 107 to 108 °C.
For the molecule `CCCCCCCCCCCC(=O)CO`, the melting point was 52 to 54 °C.
Next, `C#Cc1cc(C(=O)OC)ccc1S(C)(=O)=O`: 95 to 98 °C.
Regarding `CCN(CC)CCN(CC)C(=O)c1ccc(Nc2ccnc3cc(Cl)ccc23)cc1`, the melting point stood at 166 °C.
Take `O=C(O)c1ccc(OCc2ccc(Cl)c(Cl)c2)cc1`: the melting point lay within 222 to 223 °C.
Next, `N#Cc1ccc(C=NO)c([N+](=O)[O-])c1`: 162 to 163 °C; `Cc1cnc2c(NC(=O)c3ccccc3[N+](=O)[O-])ccc(C)c2c1-n1ccnc1`: 231 to 233 °C.
`COC(=O)c1cc2c(nc1C(=O)OC)N(C)CC2`: the melting point lay within 132 to 133 °C.
As to `CN1CC[C@]2(c3cccc(O)c3)CC(=O)CC[C@@H]2C1` (relative stereo), the melting point turned out to be 175 °C.
Turning to `Cc1ccc(S(=O)(=O)Nc2ccc(C(N)=O)cc2C(N)=O)cc1`, the melting point was 212 to 215 °C.
In the case of `O=C1Nc2ccc(Br)cc2C2(CCCC2)O1` it was 180 to 185 °C.
The molecule `Cn1cnc2cc(F)ccc2c1=O` returned a melting point of 133 to 135 °C.
In the case of `Nc1ncc(-c2ccc(F)c(F)c2)nc1C(=O)Nc1cccnc1` it was 232 to 234 °C; in that of `CN1C(=O)c2cnc(-c3ccccc3)nc2N(C(=O)CN2CCOCC2)c2ccccc21`, 180 to 181 °C; in that of `COC(=O)CCCc1cc2nc(C(F)(F)F)ccc2n1S(=O)(=O)c1ccc(Cl)cc1`, 97 °C.
Regarding `COc1ccc(C2=Cc3ccc(OCc4ccccc4)cc3OC2O)cc1` (stereo not drawn), the melting point fell in the range of 138 to 139 °C.
Take `CCCc1c2oc(C(N)=O)cc(=O)c2cc2c(=O)cc(C(=O)OCC)oc12`: the melting point was 229 to 231 °C.
In the case of `CN(C(=O)Cc1ccccc1)c1cccc(-c2ccc(CC3SC(=O)NC3=O)cc2)c1` (stereo not drawn) it was 138 °C.
Next, `COc1ccc2[nH]cc(/C=C/C(=O)c3ccncc3)c2c1`: 236 to 239 °C; `CC(C)(C)OC(=O)NCC(COC(C(F)(F)F)(C(F)(F)F)C(F)(F)F)(COC(C(F)(F)F)(C(F)(F)F)C(F)(F)F)C(=O)O`: 128 to 130 °C; `COc1ccc2[nH]c3c(c2c1)C(=O)/C(=C/c1nc[nH]c1C)CC3`: 133 to 135 °C.
`O=C(CCCCN1CCCCC1)c1ccc2c(c1)Cc1cc(C(=O)CCCCN3CCCCC3)ccc1-2` returned a melting point of 124 to 127 °C.
`O=S1(=O)c2ccc(O)cc2Oc2cc(F)ccc21` yielded a melting point of 258 to 260 °C.
The molecule `CCCCCCCCCCCCOc1ccc(CO)cc1` displayed a melting point of 66.5 to 67 °C.
Take `C=CCCc1ccc(NC(=O)OCc2ccccc2)c(O)n1`: the melting point lay within 179 to 180 °C.
The molecule `CCCc1c(OCCOc2cccc3c2CCCC3)ccc2c1OC(CCC(=O)O)(CCC(=O)O)CC2=O` gave a melting point of 160 to 162 °C.
`CC1(c2ccc(-c3ccc(F)cc3)cc2)CC(=O)NN1` (stereo not drawn) showed a melting point of 194 to 196 °C.
`O=C1N(CC2CCCO2)c2cc(F)ccc2C12COc1cc3c(cc12)CCO3` (stereo not drawn) returned a melting point of 137 to 139 °C.
Regarding `Cc1cc(F)ccc1C=CC#N`, the melting point fell in the range of 86 to 87 °C.
For `CSc1nnc(-c2ccc(C)cc2)c(-c2ccc(C)cc2)n1`, the melting point was 170 to 172 °C.
Molecule `CCCCCCNC(=O)CS(=O)(=O)Nc1c(C(C)C)cccc1C(C)C` came in with a melting point of 125 to 127 °C.
In the case of `CNC(=O)ON=C(C)CN(c1c(C)cccc1C)S(C)(=O)=O` it was 130 to 134 °C.
In the case of `CC(=O)OC1CSC(Oc2ccc(-c3cccnc3)nc2Cl)C(OC(C)=O)C1OC(C)=O` (stereo not drawn) it was 155 °C; in that of `CCCOc1ccccc1C(=O)Nc1ncccc1C(N)=O`, 181 to 184 °C.
